Results published in US20230091047A1 (priority 2019, published 2023).

Experiments:
in vitro = format: cell-based; conditions: human, HepG2 or HepG2.117 cells, ATPlite, 3-days incubation (not marked with *), mean value
Procedure, shortened: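 Luminescent ATP quantitation served as the viability endpoint following a 3- or 4-day incubation with test compounds.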

[1] = test system: HBV (HepG2.117 cell line, inducibly HBV producing); experiment: Anti-HBV activity: intracellular HBV DNA by real-time PCR in HepG2.117 cells after 3 days of treatment; format: cell-based, hepatitis B virus; conditions: Hepatitis B virus, HepG2.117, 72 h, HepG2.117 cells, intracellular HBV DNA by real-time PCR, 3 days of treatment, mean value; read-out: EC50 (μM, mean value)
Procedure, shortened: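 Readout is intracellular HBV DNA, measured by real-time PCR with HBV-specific primers and probe after 3 days of exposure to serial compound dilutions. Cells are the stable HepG2.117 line, where HBV replication is induced in the absence of doxycycline.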

Q: For `CNC(=O)c1ccc(-n2c(NC(C)C)nc3c(c2=O)C[C@@H](C)N(C(=O)c2cc(Br)cc(C(F)(F)F)c2)C3)cc1` [Compound C602], which CC50 at 3 days (in vitro) is on record?
A: Its CC50 at 3 days is over 25 µM.

Q: And the EC50 [1]?
A: The EC50 was 0.38 µM.

Q: Which CC50 at 3 days (in vitro) does the source give for `CNC(=O)c1ccc(-n2c(N(C)Cc3cnn(-c4ccccc4)n3)nc3c(c2=O)C[C@@H](C)N(C(=O)c2ccc(Cl)c(Cl)c2)C3)cc1` [Compound C603] here?
A: Its CC50 at 3 days is over 50 µM.

Q: And the EC50 [1]?
A: Its EC50 is 0.21 µM.

Q: For `CNC(=O)c1ccc(-n2c(NC(C)C)nc3c(c2=O)C[C@@H](C)N(C(=O)c2ccc4c(c2)C=CS4(=O)=O)C3)cc1` [Compound C604], which CC50 at 3 days (in vitro) is on record?
A: Its CC50 at 3 days is over 50 µM.

Q: And the EC50 [1]?
A: Its EC50 is over 25 µM.

Q: With `CCN(Cc1ccc2c(c1)OCO2)c1nc2c(c(=O)n1-c1ccc(C(=O)NC)cc1)C[C@@H](C)N(C(=O)c1ccc(Cl)c(Cl)c1)C2` [Compound C605] as the compound, how does the CC50 at 3 days (in vitro) read?
A: The CC50 at 3 days was over 50 µM.

Q: And the EC50 [1]?
A: Its EC50 is 0.15 µM.

Q: What does the source list for `CNC(=O)c1cc(-n2c(N[C@@H](C)c3ccc(OC(F)(F)F)cc3)nc3c(c2=O)C[C@@H](C)N(C(=O)c2ccc(Cl)c(Cl)c2)C3)[nH]n1` [Compound C607]?
A: CC50 at 3 days (in vitro): 11.4 µM; EC50 [1]: 0.14 µM

Q: For `CNC(=O)c1ccc(-n2c(N[C@@H](C)c3ccc(C(F)F)cc3)nc3c(c2=O)C[C@@H](C)N(C(=O)c2ccc(Cl)c(Cl)c2)C3)cc1` [Compound C609], which CC50 at 3 days (in vitro) is on record?
A: Its CC50 at 3 days is 18.7 µM.

Q: And the EC50 [1]?
A: Its EC50 is 0.08 µM.

Q: Which results are given for `CC(C)Nc1nc2c(c(=O)n1-c1ccc(-c3nnc[nH]3)cc1)C[C@@H](C)N(C(=O)c1ccc(Cl)c(Cl)c1)C2` [Compound C610]?
A: CC50 at 3 days (in vitro): > 50 µM; EC50 [1]: 0.17 µM

Q: Which CC50 at 3 days (in vitro) does the source give for `CC(C)Nc1nc2c(c(=O)n1-c1ccc(-n3cncn3)cc1)C[C@@H](C)N(C(=O)c1ccc(Cl)c(Cl)c1)C2` [Compound C611] here?
A: The CC50 at 3 days was over 50 µM.

Q: And the EC50 [1]?
A: Its EC50 is 0.17 µM.

Q: What does the source list for `CNc1noc2cc(-n3c(N[C@@H](C)c4ccc(C(F)(F)F)cc4)nc4c(c3=O)C[C@@H](C)N(C(=O)c3ccc(Cl)c(Cl)c3)C4)ccc12` [Compound C612, (R)-7-(3,4-dichlorobenzoyl)-6-methyl-3-(3-(methylamino)-benzo[d]isoxazol-6-yl)-2-(((S)-1-(4-(trifluoromethyl)phenyl)ethyl)amino)-5,6,7,8-tetrahydropyrido[3,4-d]pyrimidin-4(3H)-one]?
A: CC50 at 3 days (in vitro): > 50 µM; EC50 [1]: 0.14 µM

Q: Which CC50 at 3 days (in vitro) does the source give for `CNC(=O)c1cnc(-n2c(N[C@@H](C)c3ccc(F)cc3)nc3c(c2=O)C[C@@H](C)N(C(=O)c2ccc(Cl)c(Cl)c2)C3)cn1` [Compound C614] here?
A: The CC50 at 3 days was over 50 µM.

Q: What about the EC50 [1] of the same compound?
A: Its EC50 is 0.09 µM.

Q: Which results are given for `CNC(=O)c1cnc(-n2c(N[C@@H](C)c3ccc(C(F)(F)F)cc3)nc3c(c2=O)C[C@@H](C)N(C(=O)c2ccc(Cl)c(Cl)c2)C3)cn1` [Compound C615]?
A: CC50 at 3 days (in vitro): > 50 µM; EC50 [1]: 0.13 µM

Q: Which results are given for `CNc1noc2cc(-n3c(N[C@@H](C)c4ccc(OC(F)(F)F)cc4)nc4c(c3=O)C[C@@H](C)N(C(=O)c3ccc(Cl)c(Cl)c3)C4)ccc12` [Compound C616]?
A: CC50 at 3 days (in vitro): > 50 µM; EC50 [1]: 0.19 µM

Q: Which CC50 at 3 days (in vitro) does the source give for `CNC(=O)c1cc(-n2c(N[C@@H](C)c3ccc(OC(F)(F)F)cc3)nc3c(c2=O)C[C@@H](C)N(C(=O)c2ccc(Cl)c(Cl)c2)C3)n(C)n1` [Compound C618] here?
A: Its CC50 at 3 days is over 45 µM.

Q: What about the EC50 [1] of the same compound?
A: The EC50 was 0.09 µM.

Q: What does the source list for `CNC(=O)c1ncc(-n2c(N[C@@H](C)c3ccc(OC(F)(F)F)cc3)nc3c(c2=O)C[C@@H](C)N(C(=O)c2ccc(Cl)c(Cl)c2)C3)n1C` [Compound C620]?
A: CC50 at 3 days (in vitro): > 50 µM; EC50 [1]: 0.17 µM

Q: For `CNC(=O)c1ccc(-n2c(N[C@H]3C[C@H]4CC[C@]3(C)C4(C)C)nc3c(c2=O)C[C@@H](C)N(C(=O)c2ccc(Cl)c(Cl)c2)C3)cc1` [Compound C621], which CC50 at 3 days (in vitro) is on record?
A: The CC50 at 3 days was 5.99 µM.

Q: And the EC50 [1]?
A: Its EC50 is over 2.5 µM.

Q: Which results are given for `CNC(=O)c1cc(-n2c(N[C@@H](C)c3ccc(OC(F)(F)F)cc3)nc3c(c2=O)C[C@@H](C)N(C(=O)c2ccc(Cl)c(Cl)c2)C3)nn1C` [Compound C622]?
A: CC50 at 3 days (in vitro): > 50 µM; EC50 [1]: 0.07 µM

Q: With `CNC(=O)c1cc(-n2c(N[C@@H](C)c3ccc(C(F)(F)F)cc3)nc3c(c2=O)C[C@@H](C)N(C(=O)c2ccc(Cl)c(Cl)c2)C3)nn1C` [Compound C623] as the compound, how does the CC50 at 3 days (in vitro) read?
A: Its CC50 at 3 days is over 50 µM.

Q: And the EC50 [1]?
A: Its EC50 is 0.04 µM.
